# Test results published in patent US11629171B2, “Beta-hairpin peptidomimetics” (POLYPHOR AG, priority 2017, dated 2023).
# Where a SMILES comes first, the peptide text is derived from it. Bridges are numbered along the chain shown (N, C = ends). Roman numbers before positions name the chains, in order. [ ]: non-standard residue; d: D form. Pen = CC(C)(S)[C@H](N)C(=O)O; Hiv = CC(C)[C@H](O)C(=O)O; dDab = NCC[C@@H](N)C(=O)O; hSer = N[C@@H](CCO)C(=O)O; Dab = NCC[C@H](N)C(=O)O; Dap = NC[C@H](N)C(=O)O
# How the values were obtained:
# [1] = system: human red blood cells (hRBC); test: Hemolysis; format: cell-based; conditions: red cells of human, 1 h, 200
# How it was run: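 Hemoglobin release from PBS-washed hRBC at 20% (v/v), incubated 1 h at 37° C with peptides at 200 μg/mL, is measured at 540 nm. Values are blank corrected and given as a fraction of Triton X-100 lysis × 100%.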
# [2] = system: Klebsiella pneumoniae SSI #3010; format: cell-based; conditions: SSI #3010
# How it was run: (§1)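 MIC in μg/mL, read as absence of visible growth after 18-20 h incubation at 35° C, by standard CLSI microdilution. Peptides tested in two-fold serial dilution in cation-adjusted MH-II broth containing 0.002% (final) Polysorbate 80, against roughly 10^6 CFU/mL inocula.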
# [3] = system: Enterobacter cloacae 848840; format: cell-based; conditions: 848840
# How it was run: as §1
# [4] = system: Acinetobacter baumannii 872842; format: cell-based; conditions: 872842
# How it was run: as §1
# [5] = system: Acinetobacter baumannii DSM 30008; format: cell-based; conditions: DSM 30008
# How it was run: as §1
# [6] = system: Escherichia coli ATCC 25922; format: cell-based; conditions: ATCC 25922
# How it was run: as §1
# [7] = system: Klebsiella pneumoniae 968733; format: cell-based; conditions: 968733
# How it was run: as §1
# [8] = system: Escherichia coli 926415; format: cell-based; conditions: 926415
# How it was run: as §1
# [9] = system: Pseudomonas aeruginosa ATCC 27853; format: cell-based; conditions: ATCC 27853
# How it was run: as §1
# [10] = system: male ICR mice; test: Tolerability in a mouse model (Maximum Tolerated Dose assay); format: in vivo; conditions: 2 × 40 mg/kg s.c. at a 12-hr interval, groups of 3
# How it was run: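 Groups of 3 male ICR mice weighing 23±3 g received two subcutaneous doses, 12 h apart, of 30 or 40 mg/kg in saline adjusted to pH 6.5-7.6. Observation for 30 min after each dose covered autonomic effects and acute toxicity, including death.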
Structure (SMILES),Hemolysis at 200 μg/mL [1],Klebsiella pneumoniae SSI #3010 MIC [2],MIC [3],MIC [4],Acinetobacter baumannii DSM 30008 MIC [5],Escherichia coli ATCC 25922 MIC [6],MIC [7],MIC [8],Pseudomonas aeruginosa ATCC 27853 MIC [9],Mortality and dose [10]
CC(C)C[C@@H]1NC(=O)[C@@H](CC(C)C)NC(=O)[C@H](CCN)NC(=O)[C@@H](NC(=O)[C@H](CN)NC(=O)[C@@H](NC(=O)[C@H](CCN)NC(=O)CC[C@@H]2NC(=O)[C@H](CCN)NC(=O)[C@H](Cc3ccc(O)cc3)NC(=O)[C@@H](NC(=O)[C@@H](O)C(C)C)C(C)(C)SSC[C@@H](C(=O)N[C@@H](CO)C(N)=O)NC(=O)[C@H](C(C)C)NC(=O)[C@H](CO)NC(=O)[C@H](Cc3c[nH]c4ccccc34)NC(=O)[C@H](CO)NC(=O)[C@@H](CCN)NC2=O)[C@@H](C)O)CCNC(=O)[C@H]([C@@H](C)O)NC(=O)[C@H](CCN)NC(=O)[C@H](CCN)NC1=O [Ex. 340] (I: H-[Hiv][Pen]Y[Dab]E[dDab]SWSVCS-NH2 / II: [Dab]T[Dap][Dab][Dab][dL]L[Dab][Dab]T; disulfide I:2-I:11; amide I:5-II:N; lactam II:4-II:C),<1%,0.0625 µg/mL,0.125 µg/mL,0.0625 µg/mL,0.0625 µg/mL,0.03125 µg/mL,0.25 µg/mL,0.125 µg/mL,0.25 µg/mL,0/3 died at 2 × 40 mg/kg
"CC(=O)N[C@H](C(=O)N[C@H]1CCNC(=O)C[C@@H](C(=O)N[C@@H](CO)C(N)=O)NC(=O)[C@H](C(C)C)NC(=O)[C@H](CO)NC(=O)[C@H](Cc2c[nH]c3ccccc23)NC(=O)[C@H](CO)NC(=O)[C@@H](CCN)NC(=O)[C@H](CCC(=O)N[C@@H](CCN)C(=O)N[C@H](C(=O)N[C@@H](CN)C(=O)N[C@H]2CCNC(=O)[C@H]([C@@H](C)O)NC(=O)[C@H](CCN)NC(=O)[C@H](CCN)NC(=O)[C@H](CC(C)C)NC(=O)[C@@H](CC(C)C)NC(=O)[C@H](CCN)NC2=O)[C@@H](C)O)NC(=O)[C@H](CCN)NC(=O)[C@H](Cc2ccc(O)cc2)NC1=O)C(C)C [Ex. 341] (I: Ac-V[Dab]Y[Dab]E[dDab]SWSVDS-NH2 / II: [Dab]T[Dap][Dab][Dab][dL]L[Dab][Dab]T; lactam I:2-I:11, II:4-II:C; amide I:5-II:N)",<1%,0.0625 µg/mL,2 µg/mL,0.25 µg/mL,0.0625 µg/mL,0.0625 µg/mL,1 µg/mL,0.5 µg/mL,0.125 µg/mL,0/3 died at 2 × 40 mg/kg
CC(=O)N[C@H](C(=O)N[C@H]1CSSC[C@@H](C(=O)N[C@@H](CO)C(N)=O)NC(=O)[C@H](C(C)C)NC(=O)[C@H](CO)NC(=O)[C@H](Cc2c[nH]c3ccccc23)NC(=O)[C@H](CCO)NC(=O)[C@@H](CCN)NC(=O)[C@H](CCC(=O)N[C@@H](CCN)C(=O)N[C@H](C(=O)N[C@@H](CN)C(=O)N[C@H]2CCNC(=O)[C@H]([C@@H](C)O)NC(=O)[C@H](CCN)NC(=O)[C@H](CCN)NC(=O)[C@H]([C@@H](C)O)NC(=O)[C@@H](CC(C)C)NC(=O)[C@H](CCN)NC2=O)[C@@H](C)O)NC(=O)[C@H](CCN)NC(=O)[C@H](Cc2ccc(O)cc2)NC1=O)C(C)C [Ex. 343] (I: Ac-VCY[Dab]E[dDab][hSer]WSVCS-NH2 / II: [Dab]T[Dap][Dab][Dab][dL]T[Dab][Dab]T; disulfide I:2-I:11; amide I:5-II:N; lactam II:4-II:C),<1%,0.0625 µg/mL,0.125 µg/mL,0.25 µg/mL,0.0625 µg/mL,0.03125 µg/mL,0.5 µg/mL,0.25 µg/mL,0.125 µg/mL,0/3 died at 2 × 40 mg/kg
CC(C)C[C@@H]1NC(=O)[C@@H](CC(C)C)NC(=O)[C@H](CCN)NC(=O)[C@@H](NC(=O)[C@H](CN)NC(=O)[C@@H](NC(=O)[C@H](CCN)NC(=O)CC[C@@H]2NC(=O)[C@H](CCN)NC(=O)[C@H](Cc3ccc(O)cc3)NC(=O)[C@@H](NC(=O)[C@@H](O)C(C)C)CSSC[C@@H](C(=O)N[C@H](CO)C(N)=O)NC(=O)[C@H](C(C)C)NC(=O)[C@H](CO)NC(=O)[C@H](Cc3c[nH]c4ccccc34)NC(=O)[C@H](CO)NC(=O)[C@@H](CCN)NC2=O)[C@@H](C)O)CCNC(=O)[C@H]([C@@H](C)O)NC(=O)[C@H](CCN)NC(=O)[C@H](CCN)NC1=O [Ex. 344] (I: H-[Hiv]CY[Dab]E[dDab]SWSVC[dS]-NH2 / II: [Dab]T[Dap][Dab][Dab][dL]L[Dab][Dab]T; disulfide I:2-I:11; amide I:5-II:N; lactam II:4-II:C),<1%,0.0625 µg/mL,1 µg/mL,0.25 µg/mL,0.125 µg/mL,0.0625 µg/mL,0.25 µg/mL,0.125 µg/mL,0.125 µg/mL,0/3 died at 2 × 40 mg/kg
CC(=O)N[C@H](C(=O)N[C@H]1CSSC[C@@H](C(=O)N[C@@H](CO)C(N)=O)NC(=O)[C@H](C(C)C)NC(=O)[C@H](CO)NC(=O)[C@H](Cc2c[nH]c3ccccc23)NC(=O)[C@H](CCN)NC(=O)CNC(=O)[C@H](CCC(=O)N[C@@H](CCN)C(=O)N[C@H](C(=O)N[C@@H](CN)C(=O)N[C@H]2CCNC(=O)[C@H]([C@@H](C)O)NC(=O)[C@H](CCN)NC(=O)[C@H](CCN)NC(=O)[C@H](CC(C)C)NC(=O)[C@@H](CC(C)C)NC(=O)[C@H](CCN)NC2=O)[C@@H](C)O)NC(=O)[C@H](CCN)NC(=O)[C@H](Cc2ccc(O)cc2)NC1=O)C(C)C [Ex. 345] (I: Ac-VCY[Dab]EG[Dab]WSVCS-NH2 / II: [Dab]T[Dap][Dab][Dab][dL]L[Dab][Dab]T; disulfide I:2-I:11; amide I:5-II:N; lactam II:4-II:C),<1%,0.0625 µg/mL,0.125 µg/mL,0.125 µg/mL,0.0625 µg/mL,0.0625 µg/mL,0.25 µg/mL,0.125 µg/mL,0.125 µg/mL,0/3 died at 2 × 40 mg/kg
CC(=O)N[C@H](C(=O)N[C@H]1CSSC[C@@H](C(=O)N[C@@H](CO)C(N)=O)NC(=O)[C@H](C(C)C)NC(=O)[C@H](CO)NC(=O)[C@H](Cc2c[nH]c3ccccc23)NC(=O)CNC(=O)[C@@H](CCN)NC(=O)[C@H](CCC(=O)N[C@@H](CCN)C(=O)N[C@H](C(=O)N[C@@H](CN)C(=O)N[C@H]2CCNC(=O)[C@H]([C@@H](C)O)NC(=O)[C@H](CCN)NC(=O)[C@H](CCN)NC(=O)[C@H](CC(C)C)NC(=O)[C@@H](CC(C)C)NC(=O)[C@H](CCN)NC2=O)[C@@H](C)O)NC(=O)[C@H](CCN)NC(=O)[C@H](Cc2ccc(O)cc2)NC1=O)C(C)C [Ex. 350] (I: Ac-VCY[Dab]E[dDab]GWSVCS-NH2 / II: [Dab]T[Dap][Dab][Dab][dL]L[Dab][Dab]T; disulfide I:2-I:11; amide I:5-II:N; lactam II:4-II:C),<1%,0.125 µg/mL,0.125 µg/mL,0.0625 µg/mL,0.03125 µg/mL,0.03125 µg/mL,0.125 µg/mL,0.125 µg/mL,0.125 µg/mL,0/3 died at 2 × 40 mg/kg
"CC(=O)N[C@H](C(=O)N[C@H]1CCNC(=O)C[C@@H](C(=O)N[C@@H](CO)C(N)=O)NC(=O)[C@H](C(C)C)NC(=O)[C@H](CO)NC(=O)[C@H](Cc2c[nH]c3ccccc23)NC(=O)CNC(=O)[C@@H](CCN)NC(=O)[C@H](CCC(=O)N[C@@H](CCN)C(=O)N[C@H](C(=O)N[C@@H](CN)C(=O)N[C@H]2CCNC(=O)[C@H]([C@@H](C)O)NC(=O)[C@H](CCN)NC(=O)[C@H](CCN)NC(=O)[C@H](CC(C)C)NC(=O)[C@@H](CC(C)C)NC(=O)[C@H](CCN)NC2=O)[C@@H](C)O)NC(=O)[C@H](CCN)NC(=O)[C@H](Cc2ccc(O)cc2)NC1=O)C(C)C [Ex. 351] (I: Ac-V[Dab]Y[Dab]E[dDab]GWSVDS-NH2 / II: [Dab]T[Dap][Dab][Dab][dL]L[Dab][Dab]T; lactam I:2-I:11, II:4-II:C; amide I:5-II:N)",<1%,0.0625 µg/mL,0.25 µg/mL,0.25 µg/mL,0.0625 µg/mL,0.0625 µg/mL,1 µg/mL,0.5 µg/mL,0.125 µg/mL,0/3 died at 2 × 40 mg/kg
